Measured values taken from article PMC5442318, “Hundreds of dual-stage antimalarial molecules discovered by a functional gametocyte screen” (Nature Communications, 2017).
Read-outs that look alike come from different tables or passages of the source.

Assays:
[1] = tested on: P. falciparum stage V female gametocytes; test: P. falciparum female gametocyte activation assay (Pf FGAA), 24 h or 48 h preincubation, Pfs25 expression readout; type: cell-based, Plasmodium falciparum NF54; details: for Pf FGAA classification: SLOW / FAST / GAMETE from activity at 48h, 24h, 0h incubation
How it was run: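 Female activation, triggered by xanthurenic acid and cooling, was scored by imaging Cy3-labelled anti-Pfs25 female gametes after 24 h at 26 °C. Beforehand, purified NF54 stage V gametocytes had been incubated with compound for either 24 h or 48 h (37 °C, 3% O2). Values are pIC50 from full-curve regression.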

[2] = tested on: P. falciparum female gametes; test: Pf FGAA with compounds added 30 min after triggering gametocyte activation (gamete-targeting); type: cell-based, Plasmodium falciparum NF54; details: 0h incubation time
[3] = tested on: P. falciparum stages IV–V gametocytes; test: Gametocytocidal ATP-depletion assay (gametocyte ATP bioluminescence); type: cell-based, Plasmodium falciparum
How it was run: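 Read-out is luciferase luminescence of parasite ATP (BacTiter-Glo), standing in for viability. Double-purified mature stage IV–V gametocytes, 12,500 per well, were exposed 48 h at 37 °C in low-O2 gas; screening concentration 2 μM.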

HepG2 cells = test: HepG2 cytotoxicity assay; type: cell-based; details: mean
How it was run: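 Luminescent read-out (CellTiter-Glo) taken 10 min after reagent addition at RT; plates and reagent pre-equilibrated 30 min at RT.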

[4] = tested on: Plasmodium berghei asexual blood stages; test: In vivo antimalarial therapeutic efficacy, P. berghei murine model; design: species or system CD1 mice
Description: Two out of the six compounds progressed to SMFA, TCMDC-123767 (cluster 30) and TCMDC-141154 (cluster 4), were evaluated in vivo in the Plasmodium berghei murine model. Selection criteria was based on the compound potencies in both asexual stages and gametocytes in the Pf FGAA, as well as on their transmission-blocking activity observed in the SMFA (Table 1). Owing to compound availability, TCMDC-141154 had to be replaced by a close analogue from cluster 4: TCMDC-140549 (Supplementary Data 3). Compounds were tested at 50 mg kg^−1 single dose 2-day oral treatment and efficacy was measured as a reduction of asexual blood stages parasitaemia greater than 40% compared with the vehicle-treated mice.
Pathogen-free CD1 mice (Hsd:ICR) were obtained from Harlan Interfauna Iberica (Barcelona, Spain). Eight weeks old female CD-1 mice were infected intravenously with 10^7 infected erythrocytes (day 0). Dosing solutions were prepared in water containing 5% DMSO/20% Captisol, at a target dose of 50 mg kg^−1. Mice received two oral doses once a day according to their body weight (20 ml kg^−1) starting at day 2 after infection. Control mice received the same treatment schedule with the vehicle used for the compound preparation. Samples from mice peripheral blood were taken before starting treatment and 24 h after finishing the dosing, to measure parasitaemia by flow cytometry, using the YOYO-1 staining, to assess the reduction of parasitaemia compared with the vehicle-treated mice.

[5] = Artificial membrane permeability assay (AMPA); type: in vitro ADME; details: 10 μM, pH 7.05, 3 h
Description: It is a 96-well plate-based assay that measures the speed of permeation of a compound (at 10 μM concentration) through a phospholipid membrane, consisting in 1.8% egg L-a-phosphatidylcholine (830051, Avanti Polar Lipids) and 1% cholesterol (C8667, Sigma) dissolved in n-decane (D0011, TCI American). Phosphate buffer (50 mM Na2HPO4 with 0.5% 2-hydroxypropyl-b-cyclodextrin), pH 7.05, is added to the top and bottom of the plate (S5EJ046I08, MilliPore Corp.). The lipids are allowed to form bilayers across the small holes in the filter and compound concentration is measured 3 h later in both donor and the acceptor compartments by HPLC (Agilent 1100 LC). Permeability (P) (nm s^−1) is calculated using the following formulas:
where X=VD/VR; CR and CD are final concentrations in receiver and donor side, respectively; VR and VD are volumes in receiver and donor compartment, respectively; A is the area (cm^2) and t is the incubation time (s). The considered cut-off values are as follows: High: P>200 nm s^−1; Medium: 10 nm s^−1<P<200 nm s^−1; Low: P<10 nm s^−1.

[6] = tested on: P. falciparum asexual blood stages; details: cited from earlier work; for IC50: read-out: Pf Asexual blood stages XC50
[7] = 24h incubation time, read-out: Pf FGAA IC50 (µM) 24h
[8] = mean, read-out: Gametocytes mean Pf FGAA IC50
[9] = TCAMS data, ref 1 (Gamo et al., 2010)
[10] = TCAMS data, ref 1 (Gamo, F. J. et al., Nature 465, 305-310, 2010)

| Compound | IC50 [1, 7] | Pf FGAA classification [1] | IC50 [1, 8] | IC50 [2] | Gametocytes mean ATP inhibition at 2µM (%) [3] | HepG2 cells mean TOX50 (HepG2 cells) | reduction of asexual blood stages parasitaemia (threshold 40% vs vehicle) ([4]; 50 mg kg^−1 single dose 2-day oral treatment, mice) | ED50 ([4]; single dose 2-day treatment, oral, P. berghei mice) | permeability through artificial membranes [5] | IC50 [6, 9] | Pf Asexual stages XC50 [6, 10] | IC50 ([1]; mean, P. falciparum female gametocyte activation assay, read-out: Gametocytes mean Pf FGAA IC50) | Gametocytes mean ATP inhibition at 2µM [3] | HepG2 cells mean TOX50 (HepG2 cells; HepG2 cells) | IC50 ([6]; TCAMS asexual blood stage data, ref 1 (Gamo, F. J. et al., Nature 465, 305-310, 2010)) |
| --- | --- | --- | --- | --- | --- | --- | --- | --- | --- | --- | --- | --- | --- | --- | --- |
| CC(C)(C)CNCC(C)(C)c1nc(-c2ccc(Cl)c(O)c2)c(-c2ccncc2)[nH]1.Cl [TCMDC-140549] | 3.56 µM | GAMETE | 1.01 µM | 0.51 µM | -11.46% | 11.63 µM | not reduced above the threshold | > 50 mg/kg | 17 ×10⁻⁶ cm/s | 600 nM | 600 nM |  |  |  |  |
| CCOc1ccc2c(=NN=Cc3cc(OC)c(OC)cc3OC)cc(C)[nH]c2c1 [TCMDC-142207] | 4.97 µM | SLOW |  | 6.42 µM |  |  |  |  |  |  | 170 nM | 1.22 µM | -8.55% | 12.17 µM | 1000 nM |
| Nc1ccc2[nH]cc(C3CCN(CC4CCC(NC(=O)/C=C/c5ccc(Cl)c(Cl)c5)CC4)CC3)c2n1 (stereo not drawn) [TCMDC-140064] | 6.18 µM | SLOW | 0.69 µM | > 20 µM | -8.60% | 12.59 µM |  |  |  | 730 nM | 730 nM |  |  |  |  |
